Data taken from patent EP2151237A1, “PHARMACEUTICAL COMPOSITION COMBINING A NON-STEROIDAL ANTI-INFLAMMATORY AGENT AND AN ANTICONVULSANT AGENT” (priority 2007, dated 2008).

Columns and labels:
[1] = cited from earlier work
other common receptors = conditions: benzodiazepine, glutamate, NMDA, α1, α2, β-adrenergic, muscarinic, nicotinic, dopaminergic, histaminic, serotoninergic, opiate, canabinoid receptors, voltage-dependent calcium or sodium channels; cited from earlier work
[2] = system: α2δ, which are ancillary subunits of voltage-activated calcium channels; conditions: cited from earlier work
[3] = system: A-carrageenin-induced hyperalgesia; experiment: A-carrageenin-induced peripheral inflammatory hyperalgesia in rat paw, paw latency (SLP); conditions: for ED50: Rattus norvegicus, po, 2 h, read-out: DE50 value; for peak effect / maximum effect time: time after administration, ipsilateral paw SLP
Procedure: In this study, an isobolographic analysis was conducted in order to test the interaction between Gabapentin and Meloxicam administered under three different conditions.
Sprague-Dawley male rats were used, with an approximate weight of 200-300 g. […] Rats were used once and they only received one dose of the drugs or the combination thereof.
Rats were placed in a spin cylinder to 4 rpm and one of their paws was connected to a computer terminal. After acclimatization for 1 hour, rats were administered 100 µl of 1% A-carrageenin solution on the plantar surface of one rear paw.
These fixed dosage ratios were selected by a DE50 value range for each drug and reciprocal ratio.
In order to determine the interaction nature, the dosage-derived relationship-response for the total dosage of Gabapentin and Meloxicam, was compared to the theoretical dose relationship-additive by a standard parallel line method.

[4] = Chromatographic testing of blood samples (plasma concentrations); assay type: in vivo, Sprague-Dawley male rats; conditions: blood samples taken after the assessments
Source text: After such assessments, rats were anesthetized with halothane and blood samples were taken for chromatographic testing.

rat stomachs = conditions: cited from earlier work
[5] = in its acid form; higher than Piroxicam; cited from earlier work
[6] = cited from earlier work; remark: listed apart in the source
[7] = cited from earlier work; remark: listed apart in the source

Compound	time to maximum plasma concentrations ([1]; after the administration) [h]	binding to plasmatic proteins ([1]; plasma) [%]	affinity to other common receptors (other common receptors)	affinity to α2δ proteins [2]	ED50 [3] [mg/kg]	contralateral paw response latencies ([3]; non-swollen contralateral rear paw)	peak effect / maximum effect time [3] [min]	effect of additional presence of Meloxicam on plasma concentrations of Gabapentin [4]	gastric ulcerogenicity (rat stomachs)	membrane solubility relative to Piroxicam [5] [fold]	solubility in water [6]	concentration ([7]; approximately 50 minutes after the administration) [ng/mL]	adherence to plasmatic proteins ([7]; in vivo) [%]	part of the administered dose eliminated in urine ([7]; the rest is excreted in faeces)
NCC1(CC(=O)O)CCCCC1 [Gabapentin]	≤ 3	3	no affinity	high affinity	19.2	did not show any alteration	120							
Cc1cnc(NC(=O)C2=C(O)c3ccccc3S(=O)(=O)N2C)s1 [Meloxicam, 4-hydroxy-2-methyl-N-(5-methyl-2-thiazolyl)-2H benzotiazine-3-carboxamide-1,1-dioxide]					0.46		120	does not alter	minimal gastric ulcerogenicity	10	virtually insoluble	1600	99	Around a half
